Data reported in article PMC10504751, “Chalcone/1,3,4-Oxadiazole/Benzimidazole hybrids as novel anti-proliferative agents inducing apoptosis and inhibiting EGFR & BRAFV^600E” (BMC Chemistry, 2023).
Read-outs that look alike come from different tables or passages of the source.

How the values were obtained:
HCT-116 = test: NCI one-dose SRB anti-proliferative screen; format: cell-based, human; conditions: for Growth Percent: 10 µM one dose; for inhibition at 10 µM: Homo sapiens, read-out: Cell growth inhibition %
Description: (§1) The twenty-four synthesized compounds were submitted to the National Cancer Institute (NCI), USA. Eighteen hybrids 7a-h, 7k-r, 7u, and 7v were selected by NCI for one-dose assessment of their anti-proliferative activities at 10 µM dose by Sulforhodamine B colorimetric assay. The assessment was performed in 60 cell lines derived from nine tumor subpanels, comprising lung, leukemia, melanoma, colon, renal, CNS, prostate, breast, and ovarian cancer cell lines.
(§2) The methodology of the NCI anti-proliferative screening has been described in details elsewhere (http://www.dtp.nci.nih.gov).

K-562 = test: NCI one-dose SRB anti-proliferative screen; format: cell-based, human; conditions: for inhibition at 10 µM: Homo sapiens, K562, read-out: Cell growth inhibition %
Description: as §1, §2

MOLT-4 = test: NCI one-dose SRB anti-proliferative screen; format: cell-based, human; conditions: Homo sapiens, read-out: Cell growth inhibition %
Description: as §1, §2

RXF 393 = test: NCI one-dose SRB anti-proliferative screen; format: cell-based, human; conditions: Homo sapiens, read-out: Cell growth inhibition %
Description: as §1, §2

T-47D = test: NCI one-dose SRB anti-proliferative screen; format: cell-based, human; conditions: Homo sapiens, T47D, read-out: Cell growth inhibition %
Description: as §1, §2

COLO 205 = test: NCI one-dose SRB anti-proliferative screen; format: cell-based; conditions: Homo sapiens, read-out: Cell growth inhibition %
Description: as §1, §2

HCC-2998 = test: NCI one-dose SRB anti-proliferative screen; format: cell-based; conditions: Homo sapiens, read-out: Cell growth inhibition %
Description: as §1, §2

NCI-H522 = test: NCI one-dose SRB anti-proliferative screen; format: cell-based; conditions: Homo sapiens, read-out: Cell growth inhibition %
Description: as §1, §2

A-549 = test: Propidium iodide anti-proliferative assay; format: cell-based; conditions: Homo sapiens, A549; 48 h incubation; read-out: IC50 ± SEM A-549
In short: (§3)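 Cells seeded at 3000-7500 cells/well and grown 24 h at 37 °C, then treated with compounds (10 µM in 0.1% DMSO, triplicate; IC50 runs at varied concentrations) for 48 h. PI added, plates frozen 24 h at -80 °C and thawed, fluorescence read at 530/620 nm; % cytotoxicity versus 0.1% DMSO control.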

HT-29 = test: Propidium iodide anti-proliferative assay; format: cell-based; conditions: Homo sapiens, 48 h incubation, read-out: IC50 ± SEM HT-29
In short: as §3

MCF-7 = test: Propidium iodide anti-proliferative assay; format: cell-based; conditions: Homo sapiens, MCF7; 48 h incubation; read-out: IC50 ± SEM MCF-7
In short: as §3

Panc-1 = test: Propidium iodide anti-proliferative assay; format: cell-based; conditions: Homo sapiens, 48 h incubation, read-out: IC50 ± SEM Panc-1
In short: as §3

[1] = MTT cell viability assay in normal cells; format: cell-based; conditions: human, MCF-10A normal mammary epithelial cells
In short: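 MTT read-out (540 nm after DMSO solubilization) of viability in non-tumour MCF-10A breast epithelial cells. Compounds applied at 50 µM in 0.1% DMSO, cells incubated 4 days at 37°C in quadruplicate.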

[2] = HCT-116, Colon cancer, NCI one dose
[3] = RXF 393, Renal cancer, NCI one dose
[4] = T-47D, Breast cancer, NCI one dose
[5] = COLO 205, Colon cancer, NCI one dose
[6] = HCC-2998, Colon cancer, NCI one dose
[7] = NCI-H522, Non-Small Cell Lung Cancer, NCI one dose
[8] = HCT-116 (Colon Cancer), NCI one dose 10 µM
[9] = K-562 (Leukemia), NCI one dose 10 µM
[10] = MOLT-4 (Leukemia), NCI one dose 10 µM
[11] = RXF 393 (Renal Cancer), NCI one dose 10 µM
[12] = T-47D (Breast Cancer), NCI one dose 10 µM
[13] = COLO 205 (Colon Cancer), NCI one dose 10 µM
[14] = HCC-2998 (Colon Cancer), NCI one dose 10 µM
[15] = NCI-H522 (Non-Small Cell Lung Cancer), NCI one dose 10 µM

Row | Compound | Growth Percent (HCT-116; HCT-116 (Colon Cancer)) [%] | inhibition at 10 µM (HCT-116; [2]) [%] | inhibition at 10 µM (K-562; K-562, Leukemia, NCI one dose) [%] | inhibition at 10 µM (MOLT-4; MOLT-4, Leukemia, NCI one dose) [%] | inhibition at 10 µM (RXF 393; [3]) [%] | inhibition at 10 µM (T-47D; [4]) [%] | IC50 (A-549) [µM] | IC50 (HT-29) [µM] | IC50 (MCF-7) [µM] | IC50 (Panc-1) [µM] | viability at 96 h, 50 µM [1] [%] | melting point [°C] | inhibition at 10 µM (HCT-116; [8]) [%] | inhibition at 10 µM (K-562; [9]) [%] | inhibition at 10 µM (MOLT-4; [10]) [%] | inhibition at 10 µM (RXF 393; [11]) [%] | inhibition at 10 µM (T-47D; [12]) [%] | inhibition at 10 µM (COLO 205; [13]) [%] | inhibition at 10 µM (HCC-2998; [14]) [%] | inhibition at 10 µM (NCI-H522; [15]) [%] | other results
1 | COc1ccc(-c2nc3cc(-c4nnc(SCC(=O)Nc5ccc(C(=O)/C=C/c6ccc(OC)c(OC)c6)cc5)o4)ccc3[nH]2)cc1 [Compound 7n, 2-{5-[2-(4-Methoxyphenyl)-1 H-benzo[d]imidazol-5-yl]-1,3,4-oxadiazol-2-ylthio}-N-{4-[(E)-3-(3,4-dimethoxyphenyl)acryloyl]phenyl}acetamide] | 57.96 | 42 | 52.1 | 35.7 | 31.5 | 15.4 | 1.9 ± 0.6 | 2.2 ± 0.6 | 1.65 ± 0.3 | 2.05 ± 0.5 | 92 | 222 to 224 | – | – | – | – | – | – | – | – | Growth Percent (K-562; K-562 (Leukemia), 10 µM one dose): 47%; inhibition at 10 µM (COLO 205; [5]): 0%; inhibition at 10 µM (HCC-2998; [6]): 0%; inhibition at 10 µM (NCI-H522; [7]): 24.6%
2 | COc1ccc(-c2nc3cc(-c4nnc(SCC(=O)Nc5ccc(C(=O)/C=C/c6cc(OC)c(OC)c(OC)c6)cc5)o4)ccc3[nH]2)cc1 [Compound 7o, 2-{5-[2-(4-Methoxyphenyl)-1 H-benzo[d]imidazol-5-yl]-1,3,4-oxadiazol-2-ylthio}-N-{4-[(E)-3-(3,4,5-trimethoxyphenyl)acryloyl]phenyl}acetamide] | 50.04 | 0 | 8.26 | 9 | 0 | 0 | 7.6 ± 0.3 | 8.6 ± 0.4 | 7.1 ± 0.6 | 8.2 ± 1.2 | 89 | 154 to 156 | – | – | – | – | – | – | – | – | inhibition at 10 µM (COLO 205; [5]): 0%; inhibition at 10 µM (HCC-2998; [6]): 0%; inhibition at 10 µM (NCI-H522; [7]): 0%
3 | COc1ccc(-c2nc3cc(-c4nnc(SCC(=O)Nc5ccc(C(=O)/C=C/c6ccccc6)cc5)o4)ccc3[nH]2)cc1OC [Compound 7p, 2-{5-[2-(3,4-Dimethoxyphenyl)-1 H-benzo[d]imidazol-5-yl]-1,3,4-oxadiazol-2-ylthio}-N-{4-[(E)-3-phenylacryloyl]phenyl}acetamide] | – | – | – | – | – | – | 2.5 ± 0.5 | 3.3 ± 0.4 | 2.1 ± 0.2 | 3.1 ± 0.4 | 87 | 185 to 186 | 10.3 | 8.36 | 19.5 | 0 | 13.1 | 0 | 0 | 1.56 | –
4 | COc1ccc(-c2nc3cc(-c4nnc(SCC(=O)Nc5ccc(C(=O)/C=C/c6ccc(Cl)cc6)cc5)o4)ccc3[nH]2)cc1OC [Compound 7q, 2-{5-[2-(3,4-Dimethoxyphenyl)-1 H-benzo[d]imidazol-5-yl]-1,3,4-oxadiazol-2-ylthio}-N-{4-[(E)-3-(4-chlorophenyl)acryloyl]phenyl}acetamide] | – | – | – | – | – | – | 3.4 ± 0.4 | 3.7 ± 0.5 | 3.02 ± 0.3 | 3.8 ± 0.5 | 94 | 194 to 195 | 0 | 7.27 | 24.2 | 0 | 10.6 | 0 | 0 | 1.57 | –
5 | COc1ccc(/C=C/C(=O)c2ccc(NC(=O)CSc3nnc(-c4ccc5[nH]c(-c6ccc(OC)c(OC)c6)nc5c4)o3)cc2)cc1 [Compound 7r, 2-{5-[2-(3,4-Dimethoxyphenyl)-1 H-benzo[d]imidazol-5-yl]-1,3,4-oxadiazol-2-ylthio}-N-{4-[(E)-3-(4-methoxyphenyl)acryloyl]phenyl}acetamide] | – | – | – | – | – | – | 3.6 ± 0.5 | 4.2 ± 0.5 | 3.1 ± 0.5 | 3.9 ± 0.5 | 91 | 170 to 171 | 3.79 | 21.9 | 34.5 | 0 | 28.9 | 0 | 0 | 14.3 | –
6 | COc1cc(-c2nc3cc(-c4nnc(SCC(=O)Nc5ccc(C(=O)/C=C/c6ccccc6)cc5)o4)ccc3[nH]2)cc(OC)c1OC [Compound 7u, 2-{5-[2-(3,4,5-Trimethoxyphenyl)-1 H-benzo[d]imidazol-5-yl]-1,3,4-oxadiazol-2-ylthio}-N-{4-[(E)-3-phenylacryloyl]phenyl}acetamide] | – | – | – | – | – | – | 2.25 ± 0.5 | 2.7 ± 0.5 | 2.1 ± 0.08 | 2.4 ± 0.2 | 90 | 188 to 190 | 26.5 | 14.9 | 21.8 | 0 | 14.8 | 0 | 0 | 3.99 | –
